Molecular target: T1, RAC-alpha serine/threonine-protein kinase [139-480,S378A,S381A,T450D,S473D] (Homo sapiens, UniProt P31749, S378A/S381A/S473D/T450D)
T1 construct: 139-480
Test: Akt Kinase Assay
Experimental: The kinase assay uses His-Akt1 and a biotinylated peptide as substrate. The biotinylated peptides were immobilized on streptavidin-coated FLASH plates. After reaction, the 33P-phosphopeptide captured on the FLASH plates was measured with a TopCount Packard Instruments […] (Packard Instruments, Boston, MA).

T1 sequence (P31749 139-480 S378A/S381A/T450D/S473D): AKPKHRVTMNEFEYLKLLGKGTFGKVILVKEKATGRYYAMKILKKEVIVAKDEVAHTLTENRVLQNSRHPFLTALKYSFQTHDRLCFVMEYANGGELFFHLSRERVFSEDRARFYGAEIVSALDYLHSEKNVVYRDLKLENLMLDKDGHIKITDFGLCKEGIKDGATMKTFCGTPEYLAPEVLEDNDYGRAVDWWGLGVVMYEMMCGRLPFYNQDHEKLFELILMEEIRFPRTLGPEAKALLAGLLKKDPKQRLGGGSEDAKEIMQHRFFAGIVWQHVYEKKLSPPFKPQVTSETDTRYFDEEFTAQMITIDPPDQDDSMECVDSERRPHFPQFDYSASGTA

Structure (SMILES) | IC50 (pH 7.5, 22 °C) [nM] | IC50 [nM]
N[C@H](CNc1cnc(Cl)c(/C=C/c2ccncc2)c1)CC1CNc2ccccc21 (stereo partly drawn) [N-[(2S)-2-amino-3-(2,3-dihydro-1H-indol-3-yl)propyl]-6-chloro-5-[(E)-2-(pyridin-4-yl)ethenyl]pyridin-3-amine] | – | 79
N[C@H](COc1cncc(/C=C/c2ccnc(SCc3ccccc3)c2)c1)Cc1c[nH]c2ccccc12 [3-[(2S)-2-amino-3-({5-[(E)-2-[2-(benzylsulfanyl)pyridin-4-yl]ethenyl]pyridin-3-yl}oxy)propyl]-1H-indole] | – | 3110
N[C@H](COc1cncc(/C=C/c2ccnc(NC3CC3)c2)c1)Cc1c[nH]c2ccccc12 [4-[(E)-2-{5-[(2S)-2-amino-3-(1H-indol-3-yl)propoxy]pyridin-3-yl}ethenyl]-N-cyclopropylpyridin-2-amine] | – | 69
CNc1cc(/C=C/c2cncc(OC[C@@H](N)Cc3c[nH]c4ccccc34)c2)ccn1 [4-[(E)-2-{5-[(2S)-2-amino-3-(1H-indol-3-yl)propoxy]pyridin-3-yl}ethenyl]-N-methylpyridin-2-amine] | – | 176
N[C@H](COc1cncc(/C=C/c2ccnc(-n3ccc4ccccc43)c2)c1)Cc1c[nH]c2ccccc12 [1-{4-[(E)-2-{5-[(2S)-2-amino-3-(1H-indol-3-yl)propoxy]pyridin-3-yl}ethenyl]pyridin-2-yl}-1H-indole] | – | 3340
CC(C)[C@H](N)COc1cncc(/C=C/c2ccncc2)c1 [3-[(2S)-2-amino-3-methylbutoxy]-5-[(E)-2-(pyridin-4-yl)ethenyl]pyridine] | 19300 | –
C(=C\c1cncc(OC[C@@H]2CCN2)c1)/c1ccncc1 [3-[(2S)-azetidin-2-ylmethoxy]-5-[(E)-2-(pyridin-4-yl)ethenyl]pyridine] | 10900 | –
N[C@H](COc1cncc(/C=C/c2ccnc(Oc3ccccc3)c2)c1)Cc1c[nH]c2ccccc12 [3-[(2S)-2-amino-3-({5-[(E)-2-(2-phenoxypyridin-4-yl)ethenyl]pyridin-3-yl}oxy)propyl]-1H-indole] | – | 6450
N[C@@H](CCc1ccccc1)COc1cncc(/C=C/c2ccncc2)c1 [3-[(2S)-2-amino-4-phenylbutoxy]-5-[(E)-2-(pyridin-4-yl)ethenyl]pyridine] | 8020 | –
Cn1cc(C[C@H](N)COc2cncc(/C=C/c3ccncc3)c2)c2ccccc21 [3-[(2S)-2-amino-3-({5-[(E)-2-(pyridin-4-yl)ethenyl]pyridin-3-yl}oxy)propyl]-1-methyl-1H-indole] | – | 500
CCNc1cc(/C=C/c2cncc(OC[C@@H](N)Cc3c[nH]c4ccccc34)c2)ccn1 [4-[(E)-2-{5-[(2S)-2-amino-3-(1H-indol-3-yl)propoxy]pyridin-3-yl}ethenyl]-N-ethylpyridin-2-amine] | – | 163
NCC(c1ccccc1)c1cncc(/C=C/c2ccncc2)c1 (configuration not stated) [2-phenyl-2-{5-[(E)-2-(pyridin-4-yl)ethenyl]pyridin-3-yl}ethan-1-amine] | – | 284
N[C@H](COc1cncc(/C=C/c2ccnc(NCc3ccccc3)c2)c1)Cc1c[nH]c2ccccc12 [4-[(E)-2-{5-[(2S)-2-amino-3-(1H-indol-3-yl)propoxy]pyridin-3-yl}ethenyl]-N-benzylpyridin-2-amine] | – | 147
N[C@H](CNc1cncc(/C=C/c2ccncc2)c1)Cc1c[nH]c2ccccc12 [N-[(2S)-2-amino-3-(1H-indol-3-yl)propyl]-5-[(E)-2-(pyridin-4-yl)ethenyl]pyridin-3-amine] | – | 9.7
N[C@H](COc1cncc(/C=C/c2ccncc2)c1)Cc1csc2ccccc12 [3-[(2S)-2-amino-3-(1-benzothiophen-3-yl)propoxy]-5-[(E)-2-(pyridin-4-yl)ethenyl]pyridine] | – | 142
N[C@H](CNc1cnc(Cl)c(/C=C/c2ccncc2)c1)Cc1c[nH]c2ccccc12 [N-[(2S)-2-amino-3-(1H-indol-3-yl)propyl]-6-chloro-5-[(E)-2-(pyridin-4-yl)ethenyl]pyridin-3-amine] | – | 19
Nc1cc(/C=C/c2cncc(OC[C@@H](N)Cc3c[nH]c4ccccc34)c2)ccn1 [4-[(E)-2-{5-[(2S)-2-amino-3-(1H-indol-3-yl)propoxy]pyridin-3-yl}ethenyl]pyridin-2-amine] | – | 121
N[C@H](CCc1cnc(Cl)c(/C=C/c2ccncc2)c1)Cc1c[nH]c2ccccc12 [(2R)-4-{6-chloro-5-[(E)-2-(pyridin-4-yl)ethenyl]pyridin-3-yl}-1-(1H-indol-3-yl)butan-2-amine] | – | 198
N[C@H](COc1ccc(/C=C/c2ccncc2)cn1)Cc1ccccc1 [2-[(2S)-2-amino-3-phenylpropoxy]-5-[(E)-2-(pyridin-4-yl)ethenyl]pyridine] | – | 43000
N[C@H](COc1cnc(Cl)c(/C=C/c2ccncc2)c1)Cc1c[nH]c2ccccc12 [3-[(2S)-2-amino-3-({6-chloro-5-[(E)-2-(pyridin-4-yl)ethenyl]pyridin-3-yl}oxy)propyl]-1H-indole] | – | 23
N[C@H](COc1cccc(/C=C/c2ccncc2)n1)Cc1c[nH]c2ccccc12 [3-[(2S)-2-amino-3-({6-[(E)-2-(pyridin-4-yl)ethenyl]pyridin-2-yl}oxy)propyl]-1H-indole] | – | 23300
Brc1ccc(/C=C/CNCCOc2cncc(/C=C/c3ccncc3)c2)cc1 [[(2E)-3-(4-bromophenyl)prop-2-en-1-yl][2-({5-[(E)-2-(pyridin-4-yl)ethenyl]pyridin-3-yl}oxy)ethyl]amine] | – | 32200
C(=C\c1cncc(OC[C@@H]2CCCN2)c1)/c1ccncc1 [3-[(E)-2-(pyridin-4-yl)ethenyl]-5-[(2S)-pyrrolidin-2-ylmethoxy]pyridine] | 23900 | –
COc1cc(/C=C/c2cncc(OC[C@@H](N)Cc3c[nH]c4ccccc34)c2)ccn1 [3-[(2S)-2-amino-3-({5-[(E)-2-(2-methoxypyridin-4-yl)ethenyl]pyridin-3-yl}oxy)propyl]-1H-indole] | – | 2670
CN(C)[C@H](COc1cncc(/C=C/c2ccncc2)c1)Cc1c[nH]c2ccccc12 [[(2S)-1-(1H-indol-3-yl)-3-({5-[(E)-2-(pyridin-4-yl)ethenyl]pyridin-3-yl}oxy)propan-2-yl]dimethylamine] | – | 1100
N[C@H](COc1cncc(/C=C/c2ccnc(Sc3ccccc3)c2)c1)Cc1c[nH]c2ccccc12 [3-[(2S)-2-amino-3-({5-[(E)-2-[2-(phenylsulfanyl)pyridin-4-yl]ethenyl]pyridin-3-yl}oxy)propyl]-1H-indole] | – | 6350
N[C@@H](Cc1ccccc1)C(=O)Nc1cncc(/C=C/c2ccncc2)c1 [(2S)-2-amino-3-phenyl-N-{5-[(E)-2-(pyridin-4-yl)ethenyl]pyridin-3-yl}propanamide] | – | 3200

More lines, main results first:

IC50 (pH 7.5, 22 °C) [nM] | Structure (SMILES) | IC50 [nM]
320 | N#Cc1cccc(C[C@H](N)COc2cncc(/C=C/c3ccncc3)c2)c1 [3-[(2S)-2-amino-3-({5-[(E)-2-(pyridin-4-yl)ethenyl]pyridin-3-yl}oxy)propyl]benzonitrile] | –
6760 | N[C@H](COc1cncc(/C=C/c2ccncc2)c1)C(c1ccccc1)c1ccccc1 [3-[(2S)-2-amino-3,3-diphenylpropoxy]-5-[(E)-2-(pyridin-4-yl)ethenyl]pyridine] | –
146 | N[C@H](COc1cncc(/C=C/c2ccncc2)c1)Cc1ccc2ccccc2c1 [3-[(2S)-2-amino-3-(naphthalen-2-yl)propoxy]-5-[(E)-2-(pyridin-4-yl)ethenyl]pyridine] | –
324 | N[C@H](COc1cncc(/C=C/c2ccncc2)c1)Cc1cccc2ccccc12 [3-[(2S)-2-amino-3-(naphthalen-1-yl)propoxy]-5-[(E)-2-(pyridin-4-yl)ethenyl]pyridine] | –
875 | N[C@H](COc1cncc(/C=C/c2ccncc2)c1)Cc1cccc(O)c1 [3-[(2S)-2-amino-3-({5-[(E)-2-(pyridin-4-yl)ethenyl]pyridin-3-yl}oxy)propyl]phenol] | –

Reference: BindingDB's records for doi:10.1016/j.bmcl.2005.12.017 (Abbott Laboratories, 2006)
